Drawing on a melting point compilation (Tetko et al.; mined from patent text by program, amines drawn as free bases though some values may be those of a salt), this text covers melting point for 88 compounds.

What is called melting point is the temperature, or range, at which the solid turns liquid.

Each structure is given as a SMILES string.

`O=C(O)c1c(Cl)cc(N2C(=O)N3CCCC3(Cc3ccc(Br)cc3)C2=O)cc1Cl` (stereo not drawn) yielded a melting point of 152 °C.
The compound `Cc1c(OCC2=NCCN2)ccc(Br)c1NS(C)(=O)=O` gave a melting point of 272 °C.
For the compound `Cc1nnc(-c2ccc3occ(-c4cnco4)c3c2)o1`, the melting point fell in the range of 184 to 185 °C.
As for `Cc1nccn1Cc1cnn(-c2ccc(Cl)c(Cl)c2)c1`, the figure is 176 to 177 °C; as for `CN(C)C(=O)c1cc(CN2C(=O)C3(COc4cc5c(cc43)OCO5)c3ccccc32)oc1C(F)(F)F` (stereo not drawn), 96 to 98 °C.
With `N#Cc1c(SC(F)(F)F)c(N)n(-c2ccc(C(F)(F)F)cc2)c1Br`, the melting point stood at 152 °C.
`COC(=O)c1sccc1S(=O)(=O)NC(=O)Nc1nc(C)cc(C)n1` registered a melting point of 191 to 193 °C.
In the case of `O=S(=O)(NCC1CCN(C[C@H]2COc3ccc(C(F)(F)F)cc3O2)CC1)c1cccc(Cl)c1Cl` it was 139 to 140 °C.
`O=[N+]([O-])c1ccc2c(c1)CN(Cc1ccccc1)C2`: the melting point was in the range of 80.5 to 81 °C.
As for `O=Cc1cnc(-c2ccc(F)cc2)nc1`, the figure is 168 °C; as for `COc1ccc2[nH]cc(C3=C(Cl)C(=O)C=C(Cl)C3=O)c2c1`, 195 to 196 °C; as for `CCc1nc2c(N)nc3ccccc3c2n1OC`, 216 to 217 °C.
In the case of `Ic1sc2ccccc2c1Oc1ccc(OCc2ccccc2)cc1` it was 87 to 92 °C.
Turning to `CCCCCCC(C)(C)c1ccc(C2=CCCN(CC3CC3)C2)c(O)c1`, the melting point came out at 118 °C.
As for `CCCc1c(C(=O)N2CCOCC2)c2ccc(C(N)=O)cc2n1Cc1ccccc1Cl`, the figure is 229 to 230 °C.
On to `CNC(=O)Cc1ccc(O)cc1`, for which the melting point lay within 124 to 125 °C.
As for `COC(=O)CC1CCN(C(=O)N2CCC(c3ccc(C#N)cc3)CC2)CC1`, the figure is 115 to 118 °C.
In the case of `O=C(O)c1ccc(COCc2csc3nc(C(=O)NCc4ccc(F)c(Cl)c4)[nH]c(=O)c23)cc1` it was 228 to 230 °C; in that of `CC1Cn2c(=O)[nH]c3cccc(c32)CN1CCc1ccccc1` (stereo not drawn), 150 °C; in that of `O=C(NCCCCN1CCC(c2ccc3ccccc3c2)CC1)c1ccc(NC(=O)c2ccc(Cl)cc2)cc1`, 270 °C.
As for `O=C(NO)c1ccc2c(c1)CN(C(=O)c1ccc3ncccc3c1)C2`, the figure is 208 to 210 °C; as for `CCCNC(=O)c1cnc2cccc(C)n2c1=O`, 158 to 160 °C.
As for `Cc1[nH]c(C=O)c(C)c1CCC(=O)O`, the melting point was in the range of 145 to 147 °C.
As for `Nc1cc(-c2ccncc2)cc2nc(-c3ccco3)nn12`, the figure is 294 to 296 °C.
As for `OCC1(CO)CN(Cc2ccccc2)C1`, the melting point was in the range of 86 to 87 °C.
Compound `CC(=O)N1CCC(CCCC(=O)c2ccc3c(c2)CCN(C(=O)C(F)(F)F)CC3)CC1` displayed a melting point of 101 to 102 °C.
As for `CCOC(=O)c1cc2cc(NC(=O)C[C@H]3O[C@H](c4cccc(OC)c4OC)c4cc(Cl)ccc4N(CC(C)(C)COC(C)=O)C3=O)ccc2[nH]1`, the figure is 200 to 201 °C; as for `CCOC(=O)c1[nH]cc2c1C1C=CC2CC1` (stereo not drawn), 129 to 130 °C.
In the case of `CCCc1c(OCCCOc2cc(NC(=O)c3nnn[nH]3)c(C)cc2Br)ccc(C(C)=O)c1O`, the melting point is 63 to 65 °C.
As for `Cn1cc2c(nc(NC(=O)Nc3ccc(CC(=O)NCCCCNC(=O)OC(C)(C)C)cc3)n3nc(-c4ccco4)nc23)n1`, the figure is 186 to 193 °C; as for `C[C@H](CN1CC[C@@H](F)C1)NC(=O)c1c[nH]c2ncc(-c3nn(C)c4cc(Cl)ccc34)nc12`, 233 to 234 °C.
Compound `CC(=O)SC(CC(=O)c1ccc(Oc2ccc(C(C)C)cc2)cc1)C(=O)O` (stereo not drawn) returned a melting point of 110 to 112 °C.
As for `Cc1c(C(=O)O)oc2cc(OCCNC[C@H](O)COc3ccccc3)ccc12`, the figure is 110 to 111 °C; as for `CC(C)Nc1ncnc2c1ncn2Cc1c(Cl)cccc1Cl`, 109 to 110 °C.
As for `COC(=O)c1cccc(-c2cc(CCNC(=O)C3CCC3)c3cc(OC)ccc3c2)c1`, the figure is 128 to 130 °C; as for `Cc1cc(=O)n2c3c(cc(C(O)(C(F)(F)F)C(F)(F)F)cc13)CCCC2`, 169 to 171 °C.
As for `Clc1ccc(Nc2nnc(-c3ccc(-c4ccccc4)cc3)s2)cc1Cl`, the figure is 306 °C; as for `CSC(=S)NCc1cc(=O)c(OC(c2ccccc2)c2ccccc2)cn1OC(c1ccccc1)c1ccccc1`, 176 to 178 °C.
On to `Cc1c(C(=O)O)cnn1-c1ccc(F)c(F)c1`, for which the melting point came out at 148 °C.
As for `CCOC(=O)c1cn(-c2ccc(OC)cc2)c(-c2ccc(OC)cc2)n1`, the figure is 142 to 143 °C; as for `COc1cncnc1N1CCN(CCCc2c[nH]c3ccc(Nc4c(OC(C)C)c(=O)c4=O)cc23)CC1`, 140 to 143 °C; as for `c1ccc(CSc2nc3sccn3n2)cc1`, 91 to 93 °C.
As for `O=c1ccn(-c2cccc(C(F)(F)F)c2)nc1-c1ccnn1-c1ccccc1`, the figure is 156 to 157 °C.
As for `Cc1cccc(-c2nnc(-c3ccccc3Cc3ccccc3)nn2)c1`, the figure is 90 to 91 °C; as for `COC(=O)COc1cc2c(c(Cl)c1Cl)C(=O)C(CCOC(C)=O)C2` (stereo not drawn), 111 to 113 °C.
With `COc1ccc2c3cc(C)ccc3n(CC3CCCCC3)c2c1`, the melting point fell in the range of 136 to 137 °C.
Take `Cc1ccc(-c2c(-c3ccc(S(C)(=O)=O)cc3)cnn(-c3ccc(F)c(F)c3)c2=O)cc1`: the melting point lay within 190 to 192 °C.
On to `COc1ccc2c(c1)C(CCNC(=O)C(F)(F)F)=CC2`, for which the melting point is 87 to 88 °C.
As to `O=C1C2C3C=CC(C3)C2C(=O)N1OS(=O)(=O)CCSC1CCCCC1` (stereo not drawn), the melting point lay in the range of 96 to 98 °C.
Compound `Cn1cncc1C(O)(c1ccc(C#N)cc1)c1ccc2c(c1)c(-c1cccc(Cl)c1)cc(=O)n2C` (stereo not drawn) had a melting point of 210 °C.
The compound `c1ccc(OCCSCc2ncc(-c3ccc(N=C(c4ccccc4)c4ccccc4)cc3)o2)cc1` came in with a melting point of 86 to 90 °C.
For `CC(N)C(=O)N(CCC(=O)O)C1Cc2ccccc2C1` (stereo not drawn), the melting point lay in the range of 205 to 206 °C.
In the case of `CCOc1ccccc1-c1ncc(C#N)c(=O)[nH]1` it was 186 to 187 °C.
In the case of `c1ccc(-c2ccnc3ncnn23)cc1` it was 140 °C; in that of `COC(=O)c1ccccc1CC(=O)Nc1cccc(/C=C/c2nc(C3CCC3)cs2)c1`, 143 to 144 °C; in that of `COc1cc(C)c(C(=O)CCCCCCCCCCCCCCCCCCCCC(=O)O)c(O)c1OC`, 103 to 150 °C.
As for `O=[N+]([O-])N=C1NCCN1Cc1cc(Br)no1`, the melting point was 149 °C.
As for `O=C1C(c2ccccc2)=C(c2ccccc2)C(=O)N1Cc1cccc(F)c1`, the figure is 107 to 108 °C; as for `CC1(C)C(=NO)C(=O)C2(C)CC(O)C12` (stereo not drawn), 115 to 118 °C; as for `Cc1cc(C)n(CC2CC3c4cccc5[nH]cc(c45)CC3N(C)C2)n1` (stereo not drawn), 187 to 190 °C.
`O=C(O)[C@H](Cc1ccc(-c2ccccc2)cc1)NCP(=O)(Oc1ccccc1)Oc1ccccc1`: the melting point was in the range of 118 to 119 °C.
In the case of `CCc1cc(OCc2ccccc2)ccc1C(=O)O` it was 132 to 133 °C; in that of `COc1cc2c(cc1OC)CN(CC(O)c1ccc(N)cc1)CC2` (stereo not drawn), 168 °C; in that of `CC(=O)N(C)c1cccc(OC(CCc2ccc(Cl)cc2)Cn2ccnc2)c1` (stereo not drawn), 229 to 231 °C.
As for `COC(=O)c1cc2ccc(C(=O)NCCc3ccccn3)cc2[nH]1`, the figure is 191 to 193 °C; as for `CCOC(=O)C(C)(C)c1ccc(N[C@@H](CCC(N)=O)C(=O)O)cc1`, 147 to 148 °C; as for `CC(=O)c1ccc2c(c1)C(n1ccccc1=O)C(O)C(C)(C)O2` (stereo not drawn), 260 °C.
As for `CC(C)(C#N)c1cc(CCCn2cncn2)cc(C(C)(C)C#N)c1`, the figure is 102 to 104 °C.
The compound `CC(C)C(=O)N1CCC(CNc2ccc(Cl)cc2C(=O)Nc2ccc(Cl)cn2)CC1` displayed a melting point of 99 to 101 °C.
For the compound `CC1(C)OC(c2ccc(-c3ccc(Cl)cc3)cc2)OC1=O` (stereo not drawn), the melting point was in the range of 108 to 110 °C.
As for `NC1=NC2CCCc3cccc(c32)N1` (stereo not drawn), the figure is 230 to 232 °C; as for `C#CCOc1cc(-n2nc3n(c2=O)CCCN3)c(F)cc1Cl`, 172 to 174 °C.
In the case of `NCCCC(=O)NCCS(=O)(=O)O` it was 247 °C; in that of `CS(=O)(=O)c1ccc(-c2cnn(-c3ccc(F)c(Cl)c3)c(=O)c2Cc2cccc(F)c2)cc1`, 101 to 103 °C; in that of `CCOC(=O)OC12Oc3cc(C(C)C)ccc3C1(OC(=O)OCC)C(=O)c1ccccc12` (stereo not drawn), 150 to 153 °C.
In the case of `C#CCn1c(C(F)(F)F)c(CO)c2ccccc21` it was 90 °C; in that of `CC(C)n1cc(C(=O)NCc2ccc(Cl)cc2)c(=O)c2cc(CN3CCOCC3)sc21`, 191 to 195 °C.
On to `COc1ccc([C@@H]2Sc3cc(Oc4ccc(F)cc4)ccc3NC(=O)[C@@H]2O)cc1`, for which the melting point is 198 to 200 °C.
As for `COc1ccc(CSc2ncn(Cc3cc4c(cc3Cl)OCO4)c2C(=O)O)cc1`, the figure is 195 °C.
`CS(=O)(=O)Nc1c(C(=O)c2cccc(Br)c2)[nH]c2cc(Cl)ccc12` came in with a melting point of 184 to 185 °C.
The compound `CCC1(C)CC(NC(=O)c2cccc([N+](=O)[O-])c2O)CC(C)(C)C1` (stereo not drawn) came in with a melting point of 125 to 128 °C.
Turning to `C=C(COC(=O)Oc1ccc([N+](=O)[O-])cc1)C(=O)OCC`, the melting point fell in the range of 42 to 43 °C.
As for `Cc1nnc(N2CCC(N3c4ccccc4N(C)S3(=O)=O)CC2)n1-c1ccc(Cl)cc1`, the figure is 210 to 212 °C.
As for `Cc1ccccc1C(=O)NC(=O)NC1CN2CCC1CC2` (stereo not drawn), the figure is 216 to 217 °C; as for `C=C1C(=O)OC2OC3(C)CCC4C(C)CCC1C24OO3` (stereo not drawn), 161 to 162 °C.
In the case of `CCCc1nc2c(N)nc3cc(OCc4ccc(Cl)cc4)ccc3c2n1CC(C)C` it was 215 to 217 °C.
`CCCN(CCC)[C@@H]1Cc2c(-c3ncco3)ccc3c2[C@H](CN3)C1` yielded a melting point of 103 to 104 °C.
In the case of `CC(C)n1cc(-c2nc(C(N)=O)c(N)nc2-c2cc(F)cc(F)c2)ccc1=O` it was 249 °C.
